From patent US9040563B2, “Dual inhibitors of farnesyltransferase and geranylgeranyltransferase I” (H. Lee Moffitt Cancer Center and Research Institute, Inc., priority 2010, dated 2015)
Read-outs that look alike come from different tables or passages of the source.

Legend:
hFTase = hFTase (Homo sapiens, UniProt P49354+P49356); test: In vitro hFTase inhibition: incorporation of [3H]FPP into recombinant H-Ras-CVLS; type: biochemical; conditions: for selectivity (ratio of GGTase-I to FTase IC50s): GGTase-I IC50 / hFTase IC50
farnesylation of H-Ras = test: Whole cell inhibition of H-Ras processing (farnesylation), immunoblot, oncogenic H-Ras-transformed NIH3T3 cells; type: cell-based, mouse; conditions: Mus musculus, NIH3T3, whole cells, oncogenic H-Ras-transformed NIH3T3; n = 3 unless stated; read-out: H-Ras processing IC50
Description: (§1) In vitro inhibition assays for FTase and GGTase-I were conducted by measuring the incorporation of [^3H]FPP and [^3H]GGPP into recombinant H-Ras-CVLS and H-Ras-CVLL, respectively, as previously described (Vogt, et al., Protein geranylgeranylation, not farnesylation, is required for the G1 to S phase transition in mouse fibroblasts. Oncogene, 1996, 13, 1991-1999). The in vivo inhibition of farnesylation and geranylgeranylation was determined based on the level of inhibition by synthetic compounds of H-Ras and Rap1A processing, respectively (Sun, et al., Both farnesyltransferase and geranylgeranyltransferase I inhibitors are required for inhibition of oncogenic K-Ras prenylation but each alone is sufficient to suppress human tumor growth in nude mouse xenografts. Oncogene, 1998, 16, 1467-1473). […] The separated proteins were transferred to nitrocellulose and immunoblotted using an anti-Ras antibody (Y13-258) or an anti-Rap1A antibody (SantaCruz Biotechnology, Santa Cruz, Calif.), respectively. Antibody reactions were visualized using either peroxidase-conjugated goat anti-rat IgG or goat anti-rabbit IgG (Jackson ImmunoResearch, West Grove, Pa.) and an enhanced chemiluminescence detection system.
(§2) Briefly, in vitro inhibition assays for hFTase and GGTase-I were carried out by measuring the incorporation of [^3H]FPP and [^3H]GGPP into recombinant H-Ras-CVLS and H-Ras-CVLL, respectively, as described previously (Vogt et al., Protein geranylgeranylation, not farnesylation, is required for G1 to S phase transition in mouse fibroblasts. Oncogene. 1996; 13:1991-1999). Whole cell inhibition of farnesylation and geranylgeranylation were determined based on the level of inhibition by synthetic compounds of H-Ras and Rap1A processing, respectively (Sun, et al., Both farnesyltransferase and geranylgeranyltransferase I inhibitors are required for inhibition of oncogenic K-Ras prenylation but each alone is sufficient to suppress human tumor growth in nude mouse xenografts. Oncogene. 1998; 16:1467-1473).

[1] = system: geranylgeranylation of Rap1A; test: Whole cell inhibition of Rap1A processing (geranylgeranylation), immunoblot, oncogenic H-Ras-transformed NIH3T3 cells; type: cell-based, mouse; conditions: Mus musculus
Description: as §1, §2

[2] = whole cells, oncogenic H-Ras-transformed NIH3T3, n = 3 unless stated, read-out: Rap1A processing IC50

Cn1cnc(S(=O)(=O)N(CCN(Cc2cncn2C)c2ccc(C#N)cc2)CC2CCN(C(=O)OC(C)(C)C)CC2)c1 [1ay]
selectivity (ratio of GGTase-I to FTase IC50s) (hFTase): >2.7
IC50 (farnesylation of H-Ras): > 2 µM
IC50 [1, 2]: > 2 µM

Cn1cnc(S(=O)(=O)N(CCN(Cc2cncn2C)c2ccc(C#N)cc2)CCn2cccc2)c1 [1ag]
selectivity (ratio of GGTase-I to FTase IC50s) (hFTase): 17
IC50 (farnesylation of H-Ras): 4.3 ± 1.5 µM
IC50 [1, 2]: > 10 µM

Cn1cnc(S(=O)(=O)N(Cc2ccccc2)[C@@H]2CCC[C@@H]2N(Cc2cncn2C)c2ccc(C#N)cc2)c1 [20b]
selectivity (ratio of GGTase-I to FTase IC50s) (hFTase): >10

Cn1cnc(S(=O)(=O)N(CCN(Cc2cncn2C)c2ccc(C#N)cc2)Cc2ccc(C#N)cc2)c1 [1as]
selectivity (ratio of GGTase-I to FTase IC50s) (hFTase): 18
IC50 (farnesylation of H-Ras): > 10 µM
IC50 [1, 2]: > 10 µM

Cn1cnc(S(=O)(=O)N(CCN(Cc2cncn2C)c2ccc(C#N)cc2)Cc2ccc(-n3cccc3)cc2)c1 [1av]
selectivity (ratio of GGTase-I to FTase IC50s) (hFTase): 15
IC50 [1, 2]: > 10 µM

Cn1cnc(S(=O)(=O)N(CCN(Cc2cncn2C)c2ccc(C#N)cc2)Cc2cccc(-c3ccccc3)c2)c1 [1at]
selectivity (ratio of GGTase-I to FTase IC50s) (hFTase): 2.4
IC50 [1, 2]: > 10 µM

Cn1cnc(S(=O)(=O)N(CCN(Cc2cncn2C)c2ccc(C(=O)OC(C)(C)C)cc2)Cc2ccccc2)c1 [compound 11, tert-Butyl 4-[{2-[benzyl-(1-methyl-1H-imidazole-4-sulfonyl)-amino]-ethyl}-(3-methyl-3H-imidazol-4-ylmethyl)-amino]-benzoate]
selectivity (ratio of GGTase-I to FTase IC50s) (hFTase): 0.9

Cn1cnc(S(=O)(=O)N(CCN(Cc2cncn2C)c2ccc(C#N)cc2Cl)CC2CCN(c3ncccn3)CC2)c1 [19a, [N-{2-[(2-Chloro-4-cyanophenyl)-(3-methyl-3H-imidazol-4-ylmethyl)-amino]-ethyl}, N-{N-(2-pyrimidinyl)-piperidin-4-ylmethyl}]1-methyl-1H-imidazole-4-sulfonamide]
selectivity (ratio of GGTase-I to FTase IC50s) (hFTase): >18

Cn1cnc(S(=O)(=O)N(CCN(Cc2cncn2C)c2ccc(C#N)cc2)Cc2ccccc2)c1 [compound 1a]
IC50 (farnesylation of H-Ras): 1.9 ± 1.2 µM
IC50 [1, 2]: > 10 µM

Cn1cnc(S(=O)(=O)N(CCCN(Cc2cncn2C)c2ccc(C#N)cc2)Cc2ccccc2)c1 [20a]
selectivity (ratio of GGTase-I to FTase IC50s) (hFTase): 11

Cn1cnc(S(=O)(=O)N(CCN(Cc2cncn2C)c2ccc(-c3ccccc3)cc2)Cc2ccccc2)c1 [compound 14, [N-Benzyl, N-{2-[(biphenyl-4-yl)-(3-methyl-3H-imidazol-4-ylmethyl)-amino]-ethyl}]1-methyl-1H-imidazole-4-sulfonamide]
selectivity (ratio of GGTase-I to FTase IC50s) (hFTase): 0.7

Cn1cnc(S(=O)(=O)N(CCN(Cc2cncn2C)c2ccc(C#N)cc2)Cc2ccsc2)c1 [compound 1ai, [N-(Thiophen-3-ylmethyl), N-{2-[(4-cyanophenyl)-(3-methyl-3H-imidazol-4-ylmethyl)-amino]-ethyl}]1-methyl-1H-imidazole-4-sulfonamide]
selectivity (ratio of GGTase-I to FTase IC50s) (hFTase): 14
IC50 [1, 2]: > 10 µM

Cn1cnc(S(=O)(=O)N(CCN(Cc2cncn2C)c2c(F)cc(C#N)cc2F)CC2CCN(c3ncccn3)CC2)c1 [19g, [N-{2-[(2,6-Difluoro-4-cyanophenyl)-(3-methyl-3H-imidazol-4-ylmethyl)-amino]-ethyl}, N-{N-(2-pyrimidinyl)-piperidin-4-ylmethyl}]1-methyl-1H-imidazole-4-sulfonamide]
selectivity (ratio of GGTase-I to FTase IC50s) (hFTase): >34

Cn1cnc(S(=O)(=O)N(CCN(Cc2cncn2C)c2ncc(C#N)cn2)CC2CCN(c3ncccn3)CC2)c1 [19d, [N-{2-[(5-Cyanopyrimidin-2-yl)-(3-methyl-3H-imidazol-4-ylmethyl)-amino]-ethyl}, N-{N-(2-pyrimidinyl)-piperidin-4-ylmethyl}]1-methyl-1H-imidazole-4-sulfonamide]
selectivity (ratio of GGTase-I to FTase IC50s) (hFTase): >16

Cn1cnc(S(=O)(=O)N(CCN(Cc2cncn2C)c2ccc(C#N)cc2)Cc2ccco2)c1 [compound 1aj, [N-(Furan-2-ylmethyl), N-{2-[(4-cyanophenyl)-(3-methyl-3H-imidazol-4-ylmethyl)-amino]-ethyl}]1-methyl-1H-imidazole-4-sulfonamide]
selectivity (ratio of GGTase-I to FTase IC50s) (hFTase): 15
IC50 [1, 2]: > 10 µM

Cn1cncc1CN(CCN(Cc1ccccc1)S(=O)(=O)c1ccccc1)c1ccc(C#N)cc1 [1d]
selectivity (ratio of GGTase-I to FTase IC50s) (hFTase): 7.6
IC50 [1, 2]: > 10 µM

Cn1cnc(S(=O)(=O)N(Cc2ccccc2)[C@H]2CC[C@@H](N(Cc3cncn3C)c3ccc(C#N)cc3)C2)c1 [20d]
selectivity (ratio of GGTase-I to FTase IC50s) (hFTase): >15

Cn1cnc(S(=O)(=O)N(CCN(Cc2cncn2C)c2ccc(C#N)cn2)CC2CCN(c3ncccn3)CC2)c1 [19c, [N-{2-[(5-Cyanopyridin-2-yl)-(3-methyl-3H-imidazol-4-ylmethyl)-amino]-ethyl}, N-{N-(2-pyrimidinyl)-piperidin-4-ylmethyl}]1-methyl-1H-imidazole-4-sulfonamide]
selectivity (ratio of GGTase-I to FTase IC50s) (hFTase): >91

Cn1cnc(S(=O)(=O)N(CCN(Cc2cncn2C)c2ccc(C(=O)O)cc2)Cc2ccccc2)c1 [compound 12, 4-[{2-[Benzyl-(1-methyl-1H-imidazole-4-sulfonyl)-amino]-ethyl}-(3-methyl-3H-imidazol-4-ylmethyl)-amino]-benzoic acid]
selectivity (ratio of GGTase-I to FTase IC50s) (hFTase): 48

Cc1ccccc1CN(CCN(Cc1cncn1C)c1ccc(C#N)cc1)S(=O)(=O)c1cn(C)cn1 [1ao]
selectivity (ratio of GGTase-I to FTase IC50s) (hFTase): 15
IC50 [1, 2]: > 10 µM

Cn1cnc(S(=O)(=O)N(CCN(Cc2cnc[nH]2)c2ccccc2)Cc2ccccc2)c1 [compound 3]
selectivity (ratio of GGTase-I to FTase IC50s) (hFTase): 1.6
IC50 (hFTase; in vitro, average of three independent assays (n = 3) unless stated, errors are standard deviations): 6.3 ± 0.36 µM
IC50 [1, 2]: > 10 µM

Cc1ccc(CN(CCN(Cc2cncn2C)c2ccc(C#N)cc2)S(=O)(=O)c2cn(C)cn2)cc1 [1aq]
IC50 ([1]; NIH3T3, read-out: Rap1A processing IC50): > 10 µM

Cn1cnc(S(=O)(=O)N(CCN(Cc2cncn2C)c2ccc(C#N)nc2)CC2CCN(c3ncccn3)CC2)c1 [19b]
selectivity (ratio of GGTase-I to FTase IC50s) (hFTase): >19

Cn1cnc(S(=O)(=O)N(CCN(Cc2cncn2C)c2ccc(C#N)cc2)Cc2cccc(C#N)c2)c1 [1ar]
IC50 [1, 2]: > 10 µM

Cn1cnc(S(=O)(=O)N(CCN(Cc2cncn2C)c2ccc(C#N)cc2)Cc2cccs2)c1 [1ak, [N-(Thiophen-2-ylmethyl), N-{2-[(4-cyanophenyl)-(3-methyl-3H-imidazol-4-ylmethyl)-amino]-ethyl}]1-methyl-1H-imidazole-4-sulfonamide]
selectivity (ratio of GGTase-I to FTase IC50s) (hFTase): 2.6
IC50 [1, 2]: > 10 µM

Cn1cnc(S(=O)(=O)N(CCN(Cc2cncn2C)c2ccc(C#N)cc2)Cc2ccc(-c3ccccc3)cc2)c1 [1au]
selectivity (ratio of GGTase-I to FTase IC50s) (hFTase): 4.3
IC50 [1, 2]: > 10 µM

4-[{2-[Benzyl-(1-methyl-1H-imidazole-4-sulfonyl)-amino]-ethyl}-(1-methyl-1H-imidazol-4-ylmethyl)-amino]-benzamide [compound 13]
selectivity (ratio of GGTase-I to FTase IC50s) (hFTase): >2

Cn1cnc(S(=O)(=O)N(CCN(Cc2cncn2C)c2c(F)c(F)c(C#N)c(F)c2F)CC2CCN(c3ncccn3)CC2)c1 [19h, [N-{2-[(2,3,5,6-Tetrafluoro-4-cyanophenyl)-(3-methyl-3H-imidazol-4-ylmethyl)-amino]-ethyl}, N-{N-(2-pyrimidinyl)-piperidin-4-ylmethyl}]1-methyl-1H-imidazole-4-sulfonamide]
selectivity (ratio of GGTase-I to FTase IC50s) (hFTase): 18

Cn1cnc(S(=O)(=O)N(CCN(Cc2cncn2C)c2ccc(C#N)c(F)c2)CC2CCN(c3ncccn3)CC2)c1 [19e, [N-{2-[(3-Fluoro-4-cyanophenyl)-(3-methyl-3H-imidazol-4-ylmethyl)-amino]-ethyl}, N-{N-(2-pyrimidinyl)-piperidin-4-ylmethyl}]1-methyl-1H-imidazole-4-sulfonamide]
selectivity (ratio of GGTase-I to FTase IC50s) (hFTase): 41

C=CCN(CCN(Cc1cncn1C)c1ccc(C#N)cc1)S(=O)(=O)c1cn(C)cn1 [1ab]
selectivity (ratio of GGTase-I to FTase IC50s) (hFTase): >14
IC50 [1, 2]: > 10 µM

Cc1cccc(CN(CCN(Cc2cncn2C)c2ccc(C#N)cc2)S(=O)(=O)c2cn(C)cn2)c1 [1ap]
selectivity (ratio of GGTase-I to FTase IC50s) (hFTase): 12
IC50 [1, 2]: > 10 µM

Cn1cncc1CN(CCN(Cc1ccccc1)S(=O)(=O)c1ccccn1)c1ccc(C#N)cc1 [compound 1f]
IC50 (farnesylation of H-Ras): 0.09 ± 0.06 µM
IC50 [1, 2]: > 10 µM

Cn1cnc(S(=O)(=O)N(CCN(Cc2cncn2C)c2ccc(C#N)cc2F)CC2CCN(c3ncccn3)CC2)c1 [compound 19f, [N-{2-[(2-Fluoro-4-cyanophenyl)-(3-methyl-3H-imidazol-4-ylmethyl)-amino]-ethyl}, N-{N-(2-pyrimidinyl)-piperidin-4-ylmethyl}]1-methyl-1H-imidazole-4-sulfonamide]
selectivity (ratio of GGTase-I to FTase IC50s) (hFTase): >156
